Laboratory results taken from patent publication US12678478B2, “Compositions and methods for treating dysregulated wound healing” (The Regents of the University of California, priority 2020, dated 2026).

What was measured:
[1] = tested on: Col5a1CKO cardiac fibroblasts; assay: Myofibroblast gene expression (qPCR) in Col5a1CKO cardiac fibroblasts generated ex vivo with or without cilengitide; assay type: cell-based, mouse; details: Cilengitide 1 μM, 7 days, Col5a1 floxed cardiac fibroblasts infected with lentiviral Cre, versus no cilengitide (FIG. 8F)
Experimental: For qPCR, and RNA-seq, the injured and uninjured regions of the heart were harvested at different time points following injury, RNA extracted using RNeasy Mini kit (Qiagen). cDNAs were generated using iScript cDNA Synthesis Kit (BioRad) and qPCR performed.
Cardiac fibroblasts were isolated from Col5a1 fl/fl mouse as described above. These cells were infected with Lentivirus-Large T antigen in presence of polybrene (8 μg/ml) for 16 h, treated with puromycin (2 μg/ml) for selection of infected cells. Immortalized cells were cultured with 10% FBS containing high glucose DMEM. Cells so immortalized were then infected with Lentivirus-Cre recombinase or lentivirus-GFP to generate Col5a1 deficient cardiac fibroblast or control cardiac fibroblast, respectively. These cells were cultured for 6-7 days and used for each experiment to determine effects on gene expression. To determine an effect of Cilengitide on these cells, Col5a1fl/fl cardiac fibroblasts were pretreated with Cilengitide (1 μM) in 10% FBS containing high glucose DMEM for 1 h before infection with lentivirus-Cre recombinase or lentivirus-GFP. […]
Given the upregulation of αvβ3 and αvβ5 integrins in Col5a1CKO cardiac fibroblasts, whether there was a causal relationship between these differentially expressed integrins and myofibroblast differentiation was determined. […]

[2] = tested on: control (Cre(−)Col5a1fl/fl) littermate animals; assay: Acute ischemic cardiac injury (LAD ligation) in control littermates treated with cilengitide; assay type: in vivo, mouse
Experimental: All animal studies were approved by the Animal Research Committee, University of California, Los Angeles, Myocardial infarction was performed by ligating the left anterior descending (LAD) coronary artery following open thoracotomy. Briefly, Mice were anesthetized with ketamine (80 mg/kg)/xylazine (20 mg/kg) by intraperitoneal injection. Respiration was provided by mechanical ventilation with 95% 02 (tidal volume 0.5 ml, 130 breaths/min). The LAD coronary artery was ligated intramurally 2 mm from its origin with a 9-0 proline suture.
For experiments related to use of cilengitide, 20 mg/kg of Cilengitide diluted in PBS was administered by intraperitoneal injection every day until harvest and PBS was used as vehicle as a control.
For echocardiography, animals were continuously anesthetized with 1.5% isoflurane and 95% O2, Vevo2100 imaging system and a […] scan head (Toronto, Canada) were used to acquire short/long axis B-mode and M-mode images. Long axis B-mode view was used for analyzing peak longitudinal strain rate. […]
For Masson Trichrome staining, sections were stained using Masson Trichrome Stain kit (Thermo Scientific, 87019). Images were taken in heart sections from apex, mid-ventricle, and close to suture and fibrotic area analyzed from apex to mid-ventricle. Scar tissue area was calculated as the fraction of left ventricular surface area occupied by the scar tissue. […]

[3] = tested on: Col5a1CKO animals; assay: Acute ischemic cardiac injury (LAD ligation) in Col5a1CKO animals treated with cilengitide; assay type: in vivo, mouse

In the case of `CC(C)[C@H]1C(=O)N[C@@H](CCCN=C(N)N)C(=O)NCC(=O)N[C@@H](CC(=O)O)C(=O)N[C@H](Cc2ccccc2)C(=O)N1C` [cilengitide, Cilengitide], the “expression of myofibroblast markers” value [1] is reported as “significantly reduced”, the “post injury cardiac function (EF, FS by echocardiography)” value ([2]; 20 mg/kg daily for 14 days from day of injury, control littermates (FIG. 8H)) is reported as “did not affect” and the scar size ([2]; 20 mg/kg daily for 14 days, control animals, 2 weeks post injury (FIGS. 8J, 8K)) is reported as “did not affect”. The “fraction of animals exhibiting severe fibrosis” value ([3]; 20 mg/kg daily for 14 days, 2 weeks post injury, severe = >50% fibrotic area (FIG. 8L)) was 22%, the “degree of myocyte hypertrophy in the border zone (heart weight/body weight ratios and histological analysis)” value ([3]; 20 mg/kg daily for 14 days, 2 weeks post injury, versus vehicle-injected group, p<0.05 (FIGS. 8N, 8O)) was “substantially reduced” and the “Scar size expressed as a fraction of left ventricular surface area” value ([3]; 20 mg/kg daily for 14 days, Masson trichrome, 2 weeks post injury, mean±S.D., n=9, p<0.05 versus Col5a1CKO+vehicle (FIGS. 8J, 8K)) was 41.2±16.1%. For the same molecule, the “post injury cardiac function (EF, FS by echocardiography)” value ([3]; 20 mg/kg daily intraperitoneal for 14 days from day of injury, 1 and 2 weeks after injury, versus vehicle-injected Col5a1CKO (FIGS. 8H, 8I)) was “complete rescue of function” and the “number of myofibroblasts (αSMA+vimentin+cells/vimentin+cells) in scars” value ([3]; 2 weeks of cilengitide injection, 20 mg/kg daily, versus vehicle-injected group, p<0.05 (FIG. 8M)) was “significantly reduced”.
